Values quoted from earlier work in patent US10500190B1, “Sublingual or buccal administration of melatonin and/or valerian” (priority 2019, dated 2019).

Tests used:
[1] = not given; remark: listed apart in the source

- solubility in water or other aqueous biological fluids: poorly soluble
- variation of peak plasma concentrations ([1]; oral): over 20 fold
- time after administration for the blood plasma concentration of melatonin to reach its peak ([1]; oral preparations): more than 30 minutes
SMILES: COc1ccc2[nH]cc(CCNC(C)=O)c2c1 [melatonin, N-acetyl-5-methoxytrypta mine]
